Measured values: BindingDB's records for doi:10.1016/j.bmcl.2005.06.036 (Unit&#233, 2005)

Tests used:
[1] = target: HIV-1 integrase (Human immunodeficiency virus 1); assay: In vitro inhibitory concentration against HIV-1 recombinant integrase activity in strand transfer assay
[2] = target: HIV-1 integrase (Human immunodeficiency virus 1); assay: In vitro inhibitory concentration against HIV-1 recombinant integrase activity in standard 3'-processing assay

## O=C(c1ccc(O)cc1)c1ccc2ccc(/C=C/c3ccc(O)c(O)c3)nc2c1O [{2-[(E)-2-(3,4-Dihydroxy-phenyl)-vinyl]-8-hydroxy-quinolin-7-yl}-(4-hydroxy-phenyl)-methanone]
[1]
  IC50: > 100 µM
[2]
  IC50: > 100 µM
